Values of other authors, collected in US6576415B2, “Photothermographic materials with increa sed photosensitivity” (priority 2000, dated 2003).
Where two headings read alike, the source gives them in different places.

For `O=P(=O)[O-].[Ag+]` [silver metaphosphate], the Solubility in water (at 20° C.) is given as 3200 µg/mL.

In the case of `[Ag+].[Ag+].[O]=[W](=[O])([O-])[O-]` [silver tungstate], the Solubility in water (at 15° C.) is listed as 500 µg/mL.
